Values of other authors as cited in patent US20170273596A1, “METHOD FOR MONITORING SWALLOWING” (NESTEC S.A., priority 2014, published 2017).

What was measured:
[1] = database Episuite 4.1
[2] = database Episuite 4.1; remark: listed apart in the source

Compound: CSC [Dimethylsulfide]
- Volatility: Air/water partition coefficient log K [w/v] [1]: −1.49
- Lipophilicity: Oil/Water partition coefficient log Kow [w/v] [2]: 0.92

Compound: CCC(=O)C(C)=O [2,3-Pentanedione]
- Volatility: Air/water partition coefficient log K [w/v] [1]: −4.97
- Lipophilicity: Oil/Water partition coefficient log Kow [w/v] [2]: −0.85

Compound: C=C(C)[C@H]1CC=C(C)CC1 [Limonene]
- Volatility: Air/water partition coefficient log K [w/v] [1]: 0.12
- Lipophilicity: Oil/Water partition coefficient log Kow [w/v] [2]: 4.38

Compound: CS [Methanethiol]
- Volatility: Air/water partition coefficient log K [w/v] [1]: −0.97
- Lipophilicity: Oil/Water partition coefficient log Kow [w/v] [2]: 0.78

Compound: COc1cc(C=O)ccc1O [Vanillin]
- Volatility: Air/water partition coefficient log K [w/v] [1]: −8.47
- Lipophilicity: Oil/Water partition coefficient log Kow [w/v] [2]: 1.05

Compound: CC=O [Acetaldehyde]
- Volatility: Air/water partition coefficient log K [w/v] [1]: −2.56
- Lipophilicity: Oil/Water partition coefficient log Kow [w/v] [2]: −0.17

Compound: 2-Methylpropanal
- Volatility: Air/water partition coefficient log K [w/v] [1]: −2.31

Compound: CC(C)CC=O [3-Methylbutanal]
- Volatility: Air/water partition coefficient log K [w/v] [1]: −2.19
- Lipophilicity: Oil/Water partition coefficient log Kow [w/v] [2]: 1.23

Compound: CCC(C)C=O (stereo not drawn) [2-Methylbutanal]
- Volatility: Air/water partition coefficient log K [w/v] [1]: −2.20
- Lipophilicity: Oil/Water partition coefficient log Kow [w/v] [2]: 1.23

Compound: CC(=O)C(C)=O [2,3-Butanedione]
- Volatility: Air/water partition coefficient log K [w/v] [1]: −5.09
- Lipophilicity: Oil/Water partition coefficient log Kow [w/v] [2]: −1.34

Compound: CCCC(=O)OCC [Ethylbutyrate]
- Volatility: Air/water partition coefficient log K [w/v] [1]: −1.79
- Lipophilicity: Oil/Water partition coefficient log Kow [w/v] [2]: 1.85
